According to patent US10544147B2, “Purine inhibitors of human phosphatidylinositol 3-kinase delta” (MERCK SHARP & DOHME CORP., priority 2016, dated 2020):

Key:
[1] = molecular target: PI3Kalpha (Homo sapiens (Human), UniProt P42336); assay: HTRF PI3K biochemical assay, alpha isoform (selectivity versus delta); conditions: ratio PI3K-alpha IC50 value/PI3K-delta IC50 value
[2] = molecular target: PI3Kdelta (Homo sapiens (Human), UniProt O00329); assay: HTRF PI3K biochemical assay, delta isoform; conditions: 0.3 nM enzyme, 100 uM ATP, 50 uM PIP2; form screened (neutral or TFA salt)
Sequence of PI3Kdelta (O00329 whole entry, canonical isoform): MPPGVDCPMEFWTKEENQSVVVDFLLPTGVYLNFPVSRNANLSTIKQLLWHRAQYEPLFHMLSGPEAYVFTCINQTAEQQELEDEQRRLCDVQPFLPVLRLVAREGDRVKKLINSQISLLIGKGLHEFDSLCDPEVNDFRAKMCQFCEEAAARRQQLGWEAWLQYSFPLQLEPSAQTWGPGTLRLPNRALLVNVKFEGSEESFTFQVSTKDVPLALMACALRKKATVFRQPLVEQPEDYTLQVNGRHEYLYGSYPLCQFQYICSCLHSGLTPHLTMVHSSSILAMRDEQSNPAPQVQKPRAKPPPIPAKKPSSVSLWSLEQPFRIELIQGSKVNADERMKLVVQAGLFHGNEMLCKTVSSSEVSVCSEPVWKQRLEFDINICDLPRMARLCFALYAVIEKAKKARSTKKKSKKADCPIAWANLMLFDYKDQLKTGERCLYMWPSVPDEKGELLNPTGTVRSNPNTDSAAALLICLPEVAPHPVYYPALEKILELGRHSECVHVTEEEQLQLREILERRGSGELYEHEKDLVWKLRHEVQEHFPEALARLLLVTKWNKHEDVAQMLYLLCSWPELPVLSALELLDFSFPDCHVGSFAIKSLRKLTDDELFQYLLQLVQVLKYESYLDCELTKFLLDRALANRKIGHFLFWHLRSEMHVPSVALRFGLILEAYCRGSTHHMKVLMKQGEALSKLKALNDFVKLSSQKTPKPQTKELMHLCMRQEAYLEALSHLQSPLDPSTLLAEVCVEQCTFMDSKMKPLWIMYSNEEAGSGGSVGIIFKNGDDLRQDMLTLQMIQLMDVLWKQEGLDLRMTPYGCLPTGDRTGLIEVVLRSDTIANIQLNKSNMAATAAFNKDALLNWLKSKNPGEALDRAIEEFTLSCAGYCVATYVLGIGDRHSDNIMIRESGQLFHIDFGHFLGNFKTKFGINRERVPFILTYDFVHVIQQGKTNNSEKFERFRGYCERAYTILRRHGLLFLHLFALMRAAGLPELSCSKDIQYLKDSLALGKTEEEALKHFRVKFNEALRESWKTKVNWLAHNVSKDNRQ
Sequence of PI3Kdelta (P27986 whole entry partner, canonical isoform): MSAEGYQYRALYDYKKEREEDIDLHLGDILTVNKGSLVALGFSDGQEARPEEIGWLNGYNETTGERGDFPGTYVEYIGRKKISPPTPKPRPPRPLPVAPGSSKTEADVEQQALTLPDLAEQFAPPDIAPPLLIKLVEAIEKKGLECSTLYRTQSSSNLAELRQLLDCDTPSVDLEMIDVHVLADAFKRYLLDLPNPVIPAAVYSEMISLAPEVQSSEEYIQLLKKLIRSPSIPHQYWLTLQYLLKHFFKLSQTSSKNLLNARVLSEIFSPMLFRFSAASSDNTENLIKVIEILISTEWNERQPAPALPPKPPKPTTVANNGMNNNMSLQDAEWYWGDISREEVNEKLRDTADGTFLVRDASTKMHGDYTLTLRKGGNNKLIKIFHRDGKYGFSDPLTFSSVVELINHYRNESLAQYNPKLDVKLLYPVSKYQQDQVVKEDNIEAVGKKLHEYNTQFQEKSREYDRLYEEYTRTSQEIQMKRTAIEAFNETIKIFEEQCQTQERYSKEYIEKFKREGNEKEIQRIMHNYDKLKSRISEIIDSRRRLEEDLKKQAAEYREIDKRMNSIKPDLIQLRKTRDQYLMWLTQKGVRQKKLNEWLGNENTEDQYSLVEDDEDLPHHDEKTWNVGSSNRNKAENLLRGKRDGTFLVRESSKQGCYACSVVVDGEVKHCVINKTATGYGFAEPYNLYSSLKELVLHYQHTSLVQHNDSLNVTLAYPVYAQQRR

Sequence of PI3Kalpha (P42336 whole entry, canonical isoform): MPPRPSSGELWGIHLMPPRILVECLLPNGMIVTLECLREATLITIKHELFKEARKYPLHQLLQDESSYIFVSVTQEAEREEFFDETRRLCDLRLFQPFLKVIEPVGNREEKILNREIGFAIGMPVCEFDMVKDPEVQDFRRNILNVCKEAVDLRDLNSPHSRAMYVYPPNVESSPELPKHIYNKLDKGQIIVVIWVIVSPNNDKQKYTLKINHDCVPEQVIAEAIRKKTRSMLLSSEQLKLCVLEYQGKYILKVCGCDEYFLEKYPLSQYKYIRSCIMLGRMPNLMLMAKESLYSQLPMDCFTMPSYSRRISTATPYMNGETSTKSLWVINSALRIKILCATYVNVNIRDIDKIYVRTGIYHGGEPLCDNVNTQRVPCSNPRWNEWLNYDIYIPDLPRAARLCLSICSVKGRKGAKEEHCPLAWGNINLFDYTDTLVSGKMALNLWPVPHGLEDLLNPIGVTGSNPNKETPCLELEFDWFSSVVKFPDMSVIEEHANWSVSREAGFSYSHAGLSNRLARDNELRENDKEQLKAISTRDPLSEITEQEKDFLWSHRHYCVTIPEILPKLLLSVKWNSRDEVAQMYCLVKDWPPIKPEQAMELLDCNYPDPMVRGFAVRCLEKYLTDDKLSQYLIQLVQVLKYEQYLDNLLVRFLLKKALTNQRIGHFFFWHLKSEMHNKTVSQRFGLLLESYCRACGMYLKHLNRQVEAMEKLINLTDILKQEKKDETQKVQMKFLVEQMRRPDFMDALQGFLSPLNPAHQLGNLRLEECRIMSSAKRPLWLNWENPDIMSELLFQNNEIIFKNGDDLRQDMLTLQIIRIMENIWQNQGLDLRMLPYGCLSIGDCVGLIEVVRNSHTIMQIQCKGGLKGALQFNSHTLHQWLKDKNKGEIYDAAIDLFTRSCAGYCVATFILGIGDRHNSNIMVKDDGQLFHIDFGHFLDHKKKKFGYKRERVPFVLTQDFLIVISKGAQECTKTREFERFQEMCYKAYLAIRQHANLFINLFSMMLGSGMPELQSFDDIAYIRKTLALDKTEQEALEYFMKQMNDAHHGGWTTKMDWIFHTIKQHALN
Sequence of PI3Kalpha (P27986 whole entry partner, canonical isoform): as the sequence (P27986 whole entry partner, canonical isoform) above

Compound	Relative Selectivity versus PI3Kalpha [1]	IC50 [2]
CCn1c(-c2cnc(C)nc2)nc2c(-c3ccc4c(c3)C(C)(NCC(C)(C)C#N)C(=O)N4)ncnc21 (single isomer, unassigned) [Compound 2-40, (R or S)-3-((5-(9-ethyl-8-(2-methylpyrimidin-5-yl)-9H-purin-6-yl)-3-methyl-2-oxoindolin-3-yl)amino)-2,2-dimethylpropanenitrile]	>10	0.179 µM
CCn1c(-c2cnc(C)nc2)nc2c(-c3cnc4c(c3)C(C)(N3CC(C)(C#N)C3)C(=O)N4)ncnc21 (single isomer, unassigned) [Compound 2-54, (S or R)-1-(5-(9-ethyl-8-(2-methylpyrimidin-5-yl)-9H-purin-6-yl)-3-methyl-2-oxo-2,3-dihydro-1H-pyrrolo[2,3-b]pyridin-3-yl)-3-methylazetidine-3-carbonitrile]	>10	0.168 µM
CCn1c(-c2cnc(C)nc2)nc2c(-c3ccc4c(c3)C(C)(OCC(C)(C)F)C(=O)N4)ncnc21 (single isomer, unassigned) [Compound 2-55, (R or S)-5-(9-ethyl-8-(2-methylpyrimidin-5-yl)-9H-purin-6-yl)-3-(2-fluoro-2-methylpropoxy)-3-methylindolin-2-one]	>10	0.2 µM
CCn1c(-c2cnc(C)nc2)nc2c(-c3ccc4c(c3)C(C)(OCC3CC3)C(=O)N4)ncnc21 (single isomer, unassigned) [Compound 2-57, (R or S)-3-(cyclopropylmethoxy)-5-(9-ethyl-8-(2-methylpyrimidin-5-yl)-9H-purin-6-yl)-3-methylindolin-2-one]	>10	0.264 µM
CCn1c(-c2cnc(C)nc2)nc2c(-c3ccc4c(c3)C(C)(OCC3CC3)C(=O)N4)ncnc21 (single isomer, unassigned) [Compound 2-58, (R or S)-3-(cyclopropylmethoxy)-5-(9-ethyl-8-(2-methylpyrimidin-5-yl)-9H-purin-6-yl)-3-methylindolin-2-one]	>10	0.007 µM
Cc1ncc(-c2nc3c(-c4cnc5c(c4)C(C)(NCC(C)(C)F)C(=O)N5)ncnc3n2C)cn1 (single isomer, unassigned) [Compound 2-60, (S or R)-5-(9-methyl-8-(2-methylpyrimidin-5-yl)-9H-purin-6-yl)-3-((2-fluoro-2-methylpropyl)amino)-3-methyl-1H-pyrrolo[2,3-b]pyridin-2(3H)-one]	8	0.133 µM
CCn1c(-c2cnc(C)nc2)nc2c(-c3ccc4c(c3)C(C)(N3C[C@@H](F)[C@H](F)C3)C(=O)N4)ncnc21 (single isomer, unassigned) [Compound 2-61, 3-(R or S)-((3R,4R)-3,4-difluoropyrrolidin-1-yl)-5-(9-ethyl-8-(2-methylpyrimidin-5-yl)-9H-purin-6-yl)-3-methylindolin-2-one]	>10	0.035 µM
CCn1c(-c2cnc(C)nc2)nc2c(-c3ccc4c(c3)C(C)(N3CC(C)(F)C3)C(=O)N4)ncnc21 (single isomer, unassigned) [Compound 2-63, (R or S)-5-(9-ethyl-8-(2-methylpyrimidin-5-yl)-9H-purin-6-yl)-3-(3-fluoro-3-methylazetidin-1-yl)-3-methylindolin-2-one]	>10	0.087 µM
CCn1c(-c2cnc(C)nc2)nc2c(-c3ccc4c(c3)C(C)(N3CC(C)(F)C3)C(=O)N4)ncnc21 (single isomer, unassigned) [Compound 2-64, (R or S)-5-(9-ethyl-8-(2-methylpyrimidin-5-yl)-9H-purin-6-yl)-3-(3-fluoro-3-methylazetidin-1-yl)-3-methylindolin-2-one]	>10	0.006 µM
CCn1c(-c2cnc(C)nc2)nc2c(-c3ccc4c(c3)C(C)(NCC(C)C)C(=O)N4)ncnc21 (single isomer, unassigned) [Compound 2-65, (R or S)-5-(9-ethyl-8-(2-methylpyrimidin-5-yl)-9H-purin-6-yl)-3-(isobutylamino)-3-methylindolin-2-one]	>10	0.079 µM
Cc1ncc(-c2nc3c(-c4ccc5c(c4)C(C)(NCC(C)(C)F)C(=O)N5)ncnc3n2C)cn1 (single isomer, unassigned) [Compound 2-67, (R or S)-3-((2-fluoro-2-methylpropyl)amino)-3-methyl-5-(9-methyl-8-(2-methylpyrimidin-5-yl)-9H-purin-6-yl)indolin-2-one]	>10	0.344 µM
Cc1ncc(-c2nc3c(-c4ccc5c(c4)C(C)(NCC(C)(F)F)C(=O)N5)ncnc3n2C)cn1 (single isomer, unassigned) [Compound 2-69, (R or S)-3-((2,2-difluoropropyl)amino)-3-methyl-5-(9-methyl-8-(2-methylpyrimidin-5-yl)-9H-purin-6-yl)indolin-2-one]	5	0.788 µM
CCn1c(-c2cnc(C)nc2)nc2c(-c3ccc4c(c3)C(C)(NCC3(F)COC3)C(=O)N4)ncnc21 (single isomer, unassigned) [Compound 2-71, (R or S)-5-(9-ethyl-8-(2-methylpyrimidin-5-yl)-9H-purin-6-yl)-3-(((3-fluorooxetan-3-yl)methyl)amino)-3-methylindolin-2-one]	>10	0.219 µM
CCn1c(-c2cnc(C)nc2)nc2c(-c3ccc4c(c3)C(C)(N3CC(OC)C3)C(=O)N4)ncnc21 (single isomer, unassigned) [Compound 2-78, (R or S)-5-(9-ethyl-8-(2-methylpyrimidin-5-yl)-9H-purin-6-yl)-3-(3-methoxyazetidin-1-yl)-3-methylindolin-2-one]	>10	0.238 µM
CCn1c(-c2cnc(C)nc2)nc2c(-c3ccc4c(c3)C(C)(N3CC(OC)C3)C(=O)N4)ncnc21 (single isomer, unassigned) [Compound 2-79, (R or S)-5-(9-ethyl-8-(2-methylpyrimidin-5-yl)-9H-purin-6-yl)-3-(3-methoxyazetidin-1-yl)-3-methylindolin-2-one]	>10	0.015 µM

Further compounds by falling IC50 [2], results first:

Relative Selectivity versus PI3Kalpha [1]	IC50 [2]	Compound
>10	0.006 µM	CCn1c(-c2cnc(C)nc2)nc2c(-c3ccc4c(c3)C(C)(N3C[C@@H](F)[C@H](F)C3)C(=O)N4)ncnc21 (single isomer, unassigned) [Compound 2-62, 3-(R or S)-((3R,4R)-3,4-difluoropyrrolidin-1-yl)-5-(9-ethyl-8-(2-methylpyrimidin-5-yl)-9H-purin-6-yl)-3-methylindolin-2-one]
>10	0.004 µM	CCn1c(-c2cnc(C)nc2)nc2c(-c3cnc4c(c3)C(C)(N3CC(C)(C#N)C3)C(=O)N4)ncnc21 (single isomer, unassigned) [Compound 2-53, (S or R)-1-(5-(9-ethyl-8-(2-methylpyrimidin-5-yl)-9H-purin-6-yl)-3-methyl-2-oxo-2,3-dihydro-1H-pyrrolo[2,3-b]pyridin-3-yl)-3-methylazetidine-3-carbonitrile]
>10	0.004 µM	Cc1ncc(-c2nc3c(-c4ccc5c(c4)C(C)(NCC(C)(F)F)C(=O)N5)ncnc3n2C)cn1 (single isomer, unassigned) [Compound 2-70, (R or S)-3-((2,2-difluoropropyl)amino)-3-methyl-5-(9-methyl-8-(2-methylpyrimidin-5-yl)-9H-purin-6-yl)indolin-2-one]
>10	0.003 µM	CCn1c(-c2cnc(C)nc2)nc2c(-c3ccc4c(c3)C(C)(NCC(C)(C)C#N)C(=O)N4)ncnc21 (single isomer, unassigned) [Compound 2-39, (R or S)-3-((5-(9-ethyl-8-(2-methylpyrimidin-5-yl)-9H-purin-6-yl)-3-methyl-2-oxoindolin-3-yl)amino)-2,2-dimethylpropanenitrile]
>10	0.003 µM	CCn1c(-c2cnc(C)nc2)nc2c(-c3ccc4c(c3)C(C)(OCC(C)(C)F)C(=O)N4)ncnc21 (single isomer, unassigned) [Compound 2-56, (R or S)-5-(9-ethyl-8-(2-methylpyrimidin-5-yl)-9H-purin-6-yl)-3-(2-fluoro-2-methylpropoxy)-3-methylindolin-2-one]
>10	0.003 µM	CCn1c(-c2cnc(C)nc2)nc2c(-c3ccc4c(c3)C(C)(NCC3(F)COC3)C(=O)N4)ncnc21 (single isomer, unassigned) [Compound 2-72, (R or S)-5-(9-ethyl-8-(2-methylpyrimidin-5-yl)-9H-purin-6-yl)-3-(((3-fluorooxetan-3-yl)methyl)amino)-3-methylindolin-2-one]
>10	0.002 µM	Cc1ncc(-c2nc3c(-c4cnc5c(c4)C(C)(NCC(C)(C)F)C(=O)N5)ncnc3n2C)cn1 (single isomer, unassigned) [Compound 2-59, (S or R)-5-(9-methyl-8-(2-methylpyrimidin-5-yl)-9H-purin-6-yl)-3-((2-fluoro-2-methylpropyl)amino)-3-methyl-1H-pyrrolo[2,3-b]pyridin-2(3H)-one]
>10	0.002 µM	Cc1ncc(-c2nc3c(-c4ccc5c(c4)C(C)(NCC(C)(C)F)C(=O)N5)ncnc3n2C)cn1 (single isomer, unassigned) [Compound 2-68, (R or S)-3-((2-fluoro-2-methylpropyl)amino)-3-methyl-5-(9-methyl-8-(2-methylpyrimidin-5-yl)-9H-purin-6-yl)indolin-2-one]
>10	0.001 µM	CCn1c(-c2cnc(C)nc2)nc2c(-c3ccc4c(c3)C(C)(NCC(C)C)C(=O)N4)ncnc21 (single isomer, unassigned) [Compound 2-66, (R or S)-5-(9-ethyl-8-(2-methylpyrimidin-5-yl)-9H-purin-6-yl)-3-(isobutylamino)-3-methylindolin-2-one]
